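Values below derive from 48-hour exposures of cells grown in 96-well plates, with endpoints linearly interpolated between the two concentrations bracketing the appropriate inhibition level. Definition used: TGI = concentration required for complete inhibition of growth.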
Key:
Test in all cases: inhibition of tumour cell growth, NCI panel, 48 h
HCT-116 colon = test system: HCT-116 colon
LXFL 529 NSCLC = test system: LXFL 529 NSCLC
A498 renal = test system: A498 renal
HL-60(TB) leukemia = test system: HL-60(TB) leukemia
SF-539 CNS = test system: SF-539 CNS
KM12 colon = test system: KM12 colon
IGROV1 ovarian = test system: IGROV1 ovarian
SK-MEL-5 melanoma = test system: SK-MEL-5 melanoma
SK-MEL-28 melanoma = test system: SK-MEL-28 melanoma
SNB-78 CNS = test system: SNB-78 CNS
A549 NSCLC = test system: A549 NSCLC
SW-620 colon = test system: SW-620 colon
OVCAR-5 ovarian = test system: OVCAR-5 ovarian
SN12C renal = test system: SN12C renal
HOP-18 NSCLC = test system: HOP-18 NSCLC
M19-MEL melanoma = test system: M19-MEL melanoma
SK-OV-3 ovarian = test system: SK-OV-3 ovarian
HCC-2998 colon = test system: HCC-2998 colon
TK-10 renal = test system: TK-10 renal
OVCAR-8 ovarian = test system: OVCAR-8 ovarian
K-562 leukemia = test system: K-562 leukemia
NCI-H522 lung = test system: NCI-H522 lung
M14 melanoma = test system: M14 melanoma
CAKI-1 renal = test system: CAKI-1 renal
HCT-15 colon = test system: HCT-15 colon
MOLT-4 leukemia = test system: MOLT-4 leukemia
UACC-257 melanoma = test system: UACC-257 melanoma
DLD-1 colon = test system: DLD-1 colon
HOP-62 NSCLC = test system: HOP-62 NSCLC
XF 498 CNS = test system: XF 498 CNS
U251 CNS = test system: U251 CNS
UO-31 renal = test system: UO-31 renal
SF-295 CNS = test system: SF-295 CNS
OVCAR-4 ovarian = test system: OVCAR-4 ovarian
SNB-19 CNS = test system: SNB-19 CNS
SR leukemia = test system: SR leukemia
MALME-3M melanoma = test system: MALME-3M melanoma
HT29 colon = test system: HT29 colon
UACC-62 melanoma = test system: UACC-62 melanoma
NCI-H226 lung = test system: NCI-H226 lung
OVCAR-3 ovarian = test system: OVCAR-3 ovarian
SNB-75 CNS = test system: SNB-75 CNS
KM20L2 colon = test system: KM20L2 colon
LOX IMVI melanoma = test system: LOX IMVI melanoma
SF-268 CNS = test system: SF-268 CNS
HOP-92 NSCLC = test system: HOP-92 NSCLC
RPMI-8226 leukemia = test system: RPMI-8226 leukemia
COLO 205 colon = test system: COLO 205 colon
NCI-H460 lung = test system: NCI-H460 lung
EKVX NSCLC = test system: EKVX NSCLC
CCRF-CEM leukemia = test system: CCRF-CEM leukemia
DMS 273 small cell lung = test system: DMS 273 small cell lung
786-0 renal = test system: 786-0 renal
DMS 114 small cell lung = test system: DMS 114 small cell lung
ACHN renal = test system: ACHN renal
NCI-H23 lung = test system: NCI-H23 lung
RXF 393 renal = test system: RXF 393 renal
SK-MEL-2 melanoma = test system: SK-MEL-2 melanoma
RXF-631 renal = test system: RXF-631 renal

Measured: TGI

CCCCSC(=CC(=O)c1cccc(C(=O)C=C(SCCCC)SCCCC)n1)SCCCC
not listed: RXF-631 renal
> 100 µM: all other assays above

COc1ccc(OC)c2c(C(=O)O)c(C(C)c3ccccc3)ccc12 (stereo unspecified)
not listed: SF-539 CNS | SNB-78 CNS | XF 498 CNS | HOP-92 NSCLC | RPMI-8226 leukemia | DMS 114 small cell lung
> 100 µM: all other assays above

From PubChem BioAssay (NCI)
